The test system of one data set is HIV-1-IIIB strain. In words: Anti-HIV activity: protection of HIV-infected MT-4 cells from HIV-induced cytopathy (MTT assay). The note with it: for SI(IIIB), selection index (CC50/EC50): HIV-1 IIIB, MT-4 cells; for EC50: Human immunodeficiency virus 1, IIIB, MT4. How it is done: (§1) The test was performed as follows. […] The toxicity test was performed in parallel with the anti-HIV activity test. […] Moreover, a selection index (SI=[…]) was also calculated.
The anti-HIV activity of the compound to be tested was evaluated by the inhibitory effect on the HIV-induced cytopathy in the cell.
Viruses: HIV-1-IIIB strain and HIV-2 ROD strain.
(§2) The compound to be tested was dissolved in DMSO or water and diluted gradiently with phosphate-buffered saline solution. […] 100 μL of a virus dilution at an appropriate concentration was added, and co-cultured with the MT-4 cells at 37° C. for 1 h. Then, the MT-4 cells were collected, washed three times, resuspended with a culture medium with or without the compound to be tested and cultured at 37° C. and 5% CO2 for 7 d. On the third day of the infection, the culture medium was correspondingly replaced with the culture medium with or without the compound to be tested. Each culture process was repeated twice. The HIV-induced cytopathy was monitored daily with a reverse optical microscope. […] Considering that the DMSO may affect the antiviral activity of the compound to be tested, it is necessary to design a blank control using the same concentration of DMSO.

The subject of a further data set is MT-4 cells. Briefly: Cytotoxicity in uninfected MT-4 cells (MTT assay). It is filed as cell-based. The note with it: Mean ± SD, at least three independent experiments. How it is done: as §1, §2
(Formazan colour is commonly taken as a measure of viable cells.)

For data set [1] the following is noted: prior art; cited from earlier work.
The nature of data set [2]: Cytotoxicity in uninfected MT-4 cells (MTT assay). The note with it: human, uninfected MT-4 cells, Mean ± SD, at least three independent experiments. In kind it is cell-based. Here is the method: as §1, §2

The values that follow come from patent US11912685B2, “Biphenyl diaryl pyrimidine derivative with aromatic heterocyclic structure” (priority 2021, dated 2024).

Molecules are shown by their SMILES. Some results are limits rather than exact numbers.

As usually defined, the EC50 is the concentration that produces a half-maximal response. Low readings indicate greater potency, high ones weaker potency. Broadly, the CC50 is the concentration that lowers cell viability or growth by half. Higher therefore signals lower toxicity to the cells.

As for `N#Cc1ccc(Nc2nccc(Nc3c(F)cc(-c4cn[nH]c4)cc3F)n2)cc1` [compound 8], in the data set with HIV-1-IIIB strain, the “SI(IIIB), selection index (CC50/EC50)” value turned out to be 298 and a half-maximal response (EC50) required 10 ± 6 nM. In the data set with MT-4 cells, this molecule yielded a CC50 of 3100 ± 1700 nM.

With `N#Cc1ccc(Nc2nccc(Nc3c(F)cc(-c4ccnc(F)c4F)cc3F)n2)cc1` [compound 17], in the data set on HIV-1-IIIB strain, the “SI(IIIB), selection index (CC50/EC50)” value is >147,059 and the EC50 worked out at 2 ± 0.48 nM. In the data set with MT-4 cells, this molecule yielded a CC50 above 286000 nM.

For the molecule `N#Cc1ccc(Nc2nccc(Nc3c(F)cc(-c4cccnc4)cc3F)n2)cc1` [compound 2], in the data set with HIV-1-IIIB strain, the “SI(IIIB), selection index (CC50/EC50)” value is reported as 32,698 and a half-maximal effect (EC50) was put at 7.4 ± 1.76 nM. In the data set on MT-4 cells, this molecule showed a CC50 of 242000 ± 42000 nM.

`N#Cc1ccc(Nc2nccc(Nc3c(F)cc(-c4cc(F)nc(F)c4)cc3F)n2)cc1` [compound 16]: in the data set with HIV-1-IIIB strain, the “SI(IIIB), selection index (CC50/EC50)” value is on record as 1966 and the concentration giving a half-maximal response (EC50) was 5.6 ± 1.5 nM. In addition, the CC50 in the data set on MT-4 cells amounted to 11000 ± 6800 nM.

As to `O=C1Nc2ccc(Cl)cc2[C@@](C#CC2CC2)(C(F)(F)F)O1` [EFV, Efavirenz, reference compound], in the data set on HIV-1-IIIB strain, the “SI(IIIB), selection index (CC50/EC50)” value is recorded as above 1600 and it took 4 ± 1.5 nM to reach a half-maximal effect (EC50). In the data set with MT-4 cells, this molecule gave a CC50 above 6330 nM.

With `N#Cc1ccc(Nc2nccc(Nc3c(F)cc(-c4ccc(N)cc4)cc3F)n2)cc1` [compound 23], in the data set with HIV-1-IIIB strain, the “SI(IIIB), selection index (CC50/EC50)” value is given as >32,895 and a half-maximal response (EC50) required 9.2 ± 3.6 nM. This molecule also yielded a CC50 in the data set with MT-4 cells above 303000 nM.

As to `N#Cc1ccc(Nc2nccc(Nc3c(F)cc(-c4cccs4)cc3F)n2)cc1` [compound 6], in the data set with HIV-1-IIIB strain, the “SI(IIIB), selection index (CC50/EC50)” value is on record as >74,627 and the EC50 is 4.1 ± 2 nM. The CC50 in the data set with MT-4 cells was above 308000 nM.

Consider `N#Cc1ccc(Nc2nccc(Nc3c(F)cc(-c4ccnc(-c5ccnc(Cl)c5)c4)cc3F)n2)cc1` [compound 19], for which, in the data set on HIV-1-IIIB strain, the “SI(IIIB), selection index (CC50/EC50)” value was 3068 and the EC50 turned out to be 16.8 ± 3 nM. In the data set on MT-4 cells, this molecule came in with a cytotoxic concentration (CC50) of 51000 ± 41000 nM.

Consider `N#Cc1ccc(Nc2nccc(Nc3c(F)cc(-c4cncnc4)cc3F)n2)cc1` [compound 3], for which, in the data set with HIV-1-IIIB strain, the “SI(IIIB), selection index (CC50/EC50)” value was 229 and the EC50 was determined as 11.9 ± 3.2 nM. For the same molecule, the midpoint of cytotoxicity with MT-4 cells, the CC50, lay at 2700 ± 1700 nM.

For the molecule `Cc1cc(-c2cc(F)c(Nc3ccnc(Nc4ccc(C#N)cc4)n3)c(F)c2)cc(C)n1` [compound 21], in the data set with HIV-1-IIIB strain, the “SI(IIIB), selection index (CC50/EC50)” value was 21 and the EC50 is 56 ± 18 nM. For the same molecule, the CC50 in the data set on MT-4 cells turned out to be 1200 ± 110 nM.

`Cc1cc(C#N)cc(C)c1Oc1nc(Nc2ccc(C#N)cc2)nc(N)c1Br` [ETR, Etravirine, reference compound]: in the data set with HIV-1-IIIB strain, the “SI(IIIB), selection index (CC50/EC50)” value is listed as above 1159 and the EC50 is 4 ± 0.68 nM. The same molecule yielded a CC50 in the data set on MT-4 cells above 4600 nM. In data set [1], the water solubility is below 1 µg/mL.

With `N#Cc1ccc(Nc2nccc(Nc3c(F)cc(-c4ccoc4)cc3F)n2)cc1` [compound 5], in the data set on HIV-1-IIIB strain, the “SI(IIIB), selection index (CC50/EC50)” value worked out at 3291 and a half-maximal effect (EC50) was put at 3.2 ± 0.18 nM. It took 10600 ± 1800 nM to reach half-maximal cytotoxicity in the data set on MT-4 cells (CC50).

As for `Cc1cc(-c2cc(F)c(Nc3ccnc(Nc4ccc(C#N)cc4)n3)c(F)c2)ccn1` [compound 20], in the data set with HIV-1-IIIB strain, the “SI(IIIB), selection index (CC50/EC50)” value is listed as 777 and it took 4.1 ± 1.1 nM to reach a half-maximal effect (EC50). In the data set on MT-4 cells, this molecule returned a CC50 of 3200 ± 1100 nM.

Consider `N#Cc1ccc(Nc2nccc(Nc3c(F)cc(-c4ccncc4F)cc3F)n2)cc1` [compound 15], for which, in the data set on HIV-1-IIIB strain, the “SI(IIIB), selection index (CC50/EC50)” value came out at 2566 and a half-maximal response (EC50) required 1.3 ± 0.6 nM. The molecule also registered a CC50 in the data set with MT-4 cells of 3300 ± 1500 nM.

Turning to `N#Cc1ccc(Nc2nccc(Nc3c(F)cc(-c4ccnc(F)c4)cc3F)n2)cc1` [compound 9], in the data set on HIV-1-IIIB strain, the “SI(IIIB), selection index (CC50/EC50)” value is listed as 1311 and the EC50 was 3.8 ± 3.2 nM. In addition, the CC50 with MT-4 cells was 5000 ± 900 nM.

For `N#Cc1ccc(Nc2nccc(Nc3c(F)cc(-c4csc5ccccc45)cc3F)n2)cc1` [compound 13], in the data set with HIV-1-IIIB strain, the “SI(IIIB), selection index (CC50/EC50)” value amounted to 132 and the response was half-maximal at 124 ± 78 nM (EC50). Also, it took 16000 ± 6000 nM to reach half-maximal cytotoxicity with MT-4 cells (CC50).

On to `N#Cc1ccc(Nc2nccc(Nc3c(F)cc(-c4ccnc(Cl)c4Cl)cc3F)n2)cc1` [compound 11], for which, in the data set with HIV-1-IIIB strain, the “SI(IIIB), selection index (CC50/EC50)” value was 3673 and the EC50 was 5.5 ± 0.7 nM. The molecule also came in with a CC50 with MT-4 cells of 20000 ± 16000 nM.

With `N#Cc1ccc(Nc2nccc(Nc3c(F)cc(-c4ccco4)cc3F)n2)cc1` [compound 4], in the data set on HIV-1-IIIB strain, the “SI(IIIB), selection index (CC50/EC50)” value is listed as 7910 and the EC50 amounted to 2.1 nM. In the data set on MT-4 cells, this molecule displayed a CC50 of 16600 ± 6900 nM.

As to `N#Cc1ccc(Nc2nccc(Nc3c(F)cc(-c4ccnc(C#N)c4F)cc3F)n2)cc1` [compound 14], in the data set with HIV-1-IIIB strain, the “SI(IIIB), selection index (CC50/EC50)” value is >142,857 and the EC50 stood at 1.98 ± 0.42 nM. The same molecule showed a CC50 in the data set with MT-4 cells above 282000 nM.

Take `N#Cc1ccc(Nc2nccc(Nc3c(F)cc(-c4ccsc4)cc3F)n2)cc1` [compound 7]: in the data set with HIV-1-IIIB strain, the “SI(IIIB), selection index (CC50/EC50)” value is on record as 14032 and the EC50 was 3.9 ± 1.4 nM. The same molecule came in with a CC50 with MT-4 cells of 55400 ± 18700 nM.

Take `COc1cc(-c2cc(F)c(Nc3ccnc(Nc4ccc(C#N)cc4)n3)c(F)c2)ccn1` [compound 22]: in the data set with HIV-1-IIIB strain, the “SI(IIIB), selection index (CC50/EC50)” value is reported as 501 and a half-maximal effect (EC50) was put at 13 ± 2.9 nM. In the data set on MT-4 cells, this molecule had a CC50 of 6700 ± 980 nM.

In the case of `N#Cc1ccc(Nc2nccc(Nc3c(F)cc(-c4coc5ccccc45)cc3F)n2)cc1` [compound 12], in the data set with HIV-1-IIIB strain, the “SI(IIIB), selection index (CC50/EC50)” value came to 1991 and a half-maximal response (EC50) required 44 ± 10.1 nM. In the data set on MT-4 cells, this molecule returned a CC50 of 87000 ± 54000 nM.

As for `N#Cc1ccc(Nc2nccc(Nc3c(F)cc(-c4ccnc(Cl)c4)cc3F)n2)cc1` [compound 18], in the data set with HIV-1-IIIB strain, the “SI(IIIB), selection index (CC50/EC50)” value is listed as 622 and a half-maximal effect (EC50) was put at 6.8 ± 3.4 nM. Besides, it took 4200 ± 450 nM to reach half-maximal cytotoxicity in the data set on MT-4 cells (CC50).

`Cc1ccnc2c1NC(=O)c1cccnc1N2C1CC1` [NVP, Nevirapine, reference compound]: the CC50 at 7 d in data set [2] was above 15000 nM.

As to `N#Cc1ccc(Nc2nccc(Nc3c(F)cc(-c4cc(Cl)nc(Cl)c4)cc3F)n2)cc1` [compound 10], in the data set with HIV-1-IIIB strain, the “SI(IIIB), selection index (CC50/EC50)” value is reported as 97 and a half-maximal response (EC50) required 56 ± 32.6 nM. Further, the midpoint of cytotoxicity with MT-4 cells, the CC50, lay at 5400 ± 540 nM.
